{"source": "patent US11116213B2", "about": "“Herbicidal composition comprising cinmethylin and pethoxamid” (BASF Agro B.V., priority 2015, dated 2021)", "type_in_all_cases": "in vivo", "key": {"[1]": {"tested_on": "Sorghum halepense", "assay": "Greenhouse pre-emergence herbicidal activity on SORHA", "conditions": "20 DAT", "procedure": "(§1) The test plants have been seeded, separately for each species, in plastic containers in sandy loamy soil containing 5% of organic matter.\n(§2) The containers were irrigated gently to promote germination and growth and subsequently covered with transparent plastic hoods until the plants had rooted.\n(§3) The plants have been cultivated due to their individual requirements at 10-25° C. and 20-35° C.\n(§4) The plants were irrigated due to their necessity.\n(§5) The racemic mixture (±)-2-exo-(2-Methylbenzyloxy)-1-methyl-4-isopropyl-7-oxabicyclo[2.2.1]heptane was used as herbicide A and formulated as an emulsifiable concentrate with an active ingredient concentration of 750 g/l.\n(§6) Pethoxamid (herbicide B) was used as an emulsifiable concentrate formulation having an active ingredient concentration of 600 g/l.\n(§7) In the following experiments, the herbicidal activity for the individual herbicidal compositions (solo and mixture applications) was assessed 20 days after treatment (DAT).\n(§8) The evaluation for the damage on undesired weeds caused by the chemical compositions was carried out using a scale from 0 to 100%, compared to the untreated control plants. Here, 0 means no damage and 100 means complete destruction of the plants. […]"}, "[2]": {"tested_on": "Setaria viridis", "assay": "Greenhouse pre-emergence herbicidal activity on SETVI", "conditions": "20 DAT", "procedure": "as §1, §2, §3, §4, §5, §6, §7, §8"}, "[3]": {"tested_on": "Brassica napus", "assay": "Greenhouse pre-emergence herbicidal activity on BRSNW", "conditions": "20 DAT", "procedure": "as §1, §2, §3, §4, §5, §6, §7, §8"}, "[4]": {"tested_on": "Avena fatua", "assay": "Greenhouse pre-emergence herbicidal activity on AVEFA", "conditions": "20 DAT; for herbicidal activity (%): herbicide A solo", "procedure": "as §1, §2, §3, §4, §5, §6, §7\n(§9) The evaluation for the damage on undesired weeds caused by the chemical compositions was carried out using a scale from 0 to 100%, compared to the untreated control plants. Here, 0 means no damage and 100 means complete destruction of the plants.\n(§10) E=X+Y−(X·Y/100) where • X=effect in percent using herbicide A at an application rate a; • Y=effect in percent using herbicide B at application rate b; • E=expected effect (in %) of herbicide A+herbicide B at application rates a+b.\n(§11) The value E corresponds to the effect (plant damage or injury) which is to be expected if the activity of the individual compounds is additive.\n(§12) Table 1 below relates to the herbicidal activity, in greenhouse trials, of the individual actives and the combinations applied at different rates and ratios, in pre-emergence application at 20 days after treatment (DAT)."}, "[5]": {"tested_on": "Lolium multiflorum", "assay": "Greenhouse pre-emergence herbicidal activity on LOLMU", "conditions": "20 DAT", "procedure": "as §1, §2, §3, §4, §5, §6, §7, §8"}, "[6]": {"tested_on": "Polygonum convolvulus", "assay": "Greenhouse pre-emergence herbicidal activity on POLCO", "conditions": "20 DAT; for herbicidal activity (%): herbicide A solo", "procedure": "as §1, §2, §3, §4, §5, §6, §7, §9, §10, §11, §12"}, "[7]": {"tested_on": "Anthemis arvensis", "assay": "Greenhouse pre-emergence herbicidal activity on ANTAR", "conditions": "20 DAT; for herbicidal activity (%): herbicide A solo", "procedure": "as §1, §2, §3, §4, §5, §6, §7, §9, §10, §11, §12"}, "[8]": {"tested_on": "Alopecurus myosuroides", "assay": "Greenhouse pre-emergence herbicidal activity on ALOMY", "conditions": "20 DAT", "procedure": "as §1, §2, §3, §4, §5, §6, §7, §8"}, "[9]": {"tested_on": "Abutilon theophrasti", "assay": "Greenhouse pre-emergence herbicidal activity on ABUTH", "conditions": "20 DAT", "procedure": "as §1, §2, §3, §4, §5, §6, §7, §8"}, "[10]": {"tested_on": "Chenopodium album", "assay": "Greenhouse pre-emergence herbicidal activity on CHEAL", "conditions": "20 DAT", "procedure": "as §1, §2, §3, §4, §5, §6, §7, §8"}, "[11]": {"conditions": "herbicide A solo, 31.25 g ai/ha"}}}
{"compound": "CCOCCN(C(=O)CCl)C(=C(C)C)c1ccccc1", "note": "[pethoxamid, 2-chloro-N-(2-ethoxyethyl)-N-(2-methyl-1-phenylprop-1-enyl)acetamide]", "values": [{"measurement": "inhibition at 125 g/ha", "setting": "[1]; Sorghum halepense, 480 h, pethoxamid solo, 125 g ai/ha", "result": 85, "unit": "%"}, {"measurement": "inhibition at 62.5 g/ha", "setting": "[2]; Setaria viridis, 480 h, pethoxamid solo, 62.5 g ai/ha", "result": 80, "unit": "%"}, {"measurement": "inhibition at 500 g/ha", "setting": "[3]; Brassica napus, 480 h, pethoxamid solo, 500 g ai/ha", "result": 0, "unit": "%"}, {"measurement": "inhibition at 125 g/ha", "setting": "[4]; Avena fatua, 480 h, pethoxamid solo, 125 g ai/ha", "result": 40, "unit": "%"}, {"measurement": "inhibition at 250 g/ha", "setting": "[4]; Avena fatua, 480 h, pethoxamid solo, 250 g ai/ha", "result": 40, "unit": "%"}, {"measurement": "inhibition at 500 g/ha", "setting": "[4]; Avena fatua, 480 h, pethoxamid solo, 500 g ai/ha", "result": 50, "unit": "%"}, {"measurement": "inhibition at 62.5 g/ha", "setting": "[5]; Lolium multiflorum, 480 h, pethoxamid solo, 62.5 g ai/ha", "result": 50, "unit": "%"}, {"measurement": "inhibition at 125 g/ha", "setting": "[6]; Fallopia convolvulus, 480 h, pethoxamid solo, 125 g ai/ha", "result": 15, "unit": "%"}, {"measurement": "inhibition at 250 g/ha", "setting": "[6]; Fallopia convolvulus, 480 h, pethoxamid solo, 250 g ai/ha", "result": 15, "unit": "%"}, {"measurement": "inhibition at 500 g/ha", "setting": "[6]; Fallopia convolvulus, 480 h, pethoxamid solo, 500 g ai/ha", "result": 30, "unit": "%"}, {"measurement": "inhibition at 62.5 g/ha", "setting": "[7]; Anthemis arvensis, 480 h, pethoxamid solo, 62.5 g ai/ha", "result": 20, "unit": "%"}, {"measurement": "inhibition at 125 g/ha", "setting": "[7]; Anthemis arvensis, 480 h, pethoxamid solo, 125 g ai/ha", "result": 60, "unit": "%"}, {"measurement": "inhibition at 125 g/ha", "setting": "[8]; Alopecurus myosuroides, 480 h, pethoxamid solo, 125 g ai/ha", "result": 35, "unit": "%"}, {"measurement": "inhibition at 62.5 g/ha", "setting": "[9]; Abutilon theophrasti, 480 h, pethoxamid solo, 62.5 g ai/ha", "result": 20, "unit": "%"}, {"measurement": "inhibition at 62.5 g/ha", "setting": "[10]; Chenopodium album, 480 h, pethoxamid solo, 62.5 g ai/ha", "result": 40, "unit": "%"}]}
{"compound": "(±)-2-exo-(2-Methylbenzyloxy)-1-methyl-4-isopropyl-7-oxabicyclo[2.2.1]heptane [herbicide A]", "values": [{"measurement": "herbicidal activity (%)", "setting": "[1]; herbicide A solo, 62.5 g ai/ha", "result": 80, "unit": "%"}, {"measurement": "herbicidal activity (%)", "setting": "[2]; [11]", "result": 90, "unit": "%"}, {"measurement": "herbicidal activity (%)", "setting": "[3]; herbicide A solo, 250 g ai/ha", "result": 0, "unit": "%"}, {"measurement": "herbicidal activity (%)", "setting": "[4]; 62.5 g ai/ha", "result": 0, "unit": "%"}, {"measurement": "herbicidal activity (%)", "setting": "[4]; 125 g ai/ha", "result": 25, "unit": "%"}, {"measurement": "herbicidal activity (%)", "setting": "[4]; 250 g ai/ha", "result": 35, "unit": "%"}, {"measurement": "herbicidal activity (%)", "setting": "[5]; [11]", "result": 60, "unit": "%"}, {"measurement": "herbicidal activity (%)", "setting": "[6]; 62.5 g ai/ha", "result": 0, "unit": "%"}, {"measurement": "herbicidal activity (%)", "setting": "[6]; 125 g ai/ha", "result": 0, "unit": "%"}, {"measurement": "herbicidal activity (%)", "setting": "[6]; 250 g ai/ha", "result": 15, "unit": "%"}, {"measurement": "herbicidal activity (%)", "setting": "[7]; 31.25 g ai/ha", "result": 0, "unit": "%"}, {"measurement": "herbicidal activity (%)", "setting": "[7]; 62.5 g ai/ha", "result": 0, "unit": "%"}, {"measurement": "herbicidal activity (%)", "setting": "[8]; herbicide A solo, 62.5 g ai/ha", "result": 98, "unit": "%"}, {"measurement": "herbicidal activity (%)", "setting": "[9]; [11]", "result": 30, "unit": "%"}, {"measurement": "herbicidal activity (%)", "setting": "[10]; [11]", "result": 40, "unit": "%"}]}
